Test results from the supplement of paper PMC10307832.

Tests used:
Experiment in all cases: relative viability (nuclei count vs DMSO), 5 days (fraction); higher = more cells survive
Decitabine = compound: Nc1ncn([C@H]2C[C@H](O)[C@@H](CO)O2)c(=O)n1 [Decitabine]
In short: (§1)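 Acceptance criteria were a control CV below 25% and at least one doubling per plate. Lung cancer cell lines in 1536-well plates got five library-drug doses (not always all listed) √10 apart by pinning and were left 5 days with no medium change. Viability divides treated-well nuclei by vehicle-well nuclei and is the median across plates. Nuclei were counted by MetaXpress from 4× Hoechst images.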

Halofuginone = compound: O=C(C[C@H]1NCCC[C@@H]1O)Cn1cnc2cc(Br)c(Cl)cc2c1=O (racemic) [Halofuginone]
In short: as §1

Cediranib = compound: COc1cc2c(Oc3ccc4[nH]c(C)cc4c3F)ncnc2cc1OCCCN1CCCC1 [Cediranib]
In short: as §1

Row | Cell Line | relative viability (Decitabine; 0.04 µM) | relative viability (Decitabine; 0.1265 µM) | relative viability (Decitabine; 0.4 µM) | relative viability (Decitabine; 1.265 µM) | relative viability (Decitabine; 2 µM, anchor plate) | relative viability (Decitabine; 4 µM) | relative viability (Halofuginone; 0.001 µM) | relative viability (Halofuginone; 0.003162 µM) | relative viability (Halofuginone; 0.01 µM) | relative viability (Halofuginone; 0.03162 µM) | relative viability (Halofuginone; 0.1 µM) | relative viability (Cediranib; 0.04 µM) | relative viability (Cediranib; 0.1265 µM) | relative viability (Cediranib; 0.4 µM) | relative viability (Cediranib; 1.265 µM) | relative viability (Cediranib; 4 µM)
1 | 201T | 0.981 | 1.02 | 1.04 | 0.612 | 0.855 | 0.953 | 0.97 | 0.967 | 0.952 | 0.933 | 0.803 | 1.04 | 1.1 | 0.911 | 0.956 | 0.974
2 | A549 | 0.858 | 0.724 | 0.554 | 0.174 | 0.265 | 0.159 | 1.03 | 0.972 | 0.975 | 0.766 | 0.385 | 0.929 | 0.953 | 0.889 | 0.897 | 0.996
3 | A-427 | 0.668 | 0.612 | 0.322 | 0.322 | 0.558 | 0.292 | 1.02 | 1.04 | 0.89 | 0.989 | 0.921 | 1.01 | – | 0.951 | 0.943 | 1.07
4 | ABC-1 | 0.804 | 0.97 | 0.758 | 0.733 | 1.12 | 0.67 | 0.939 | 1.02 | 0.881 | 0.934 | 0.77 | 0.995 | 1.11 | 0.851 | 0.759 | 0.92
5 | BEN | 0.848 | 0.853 | 0.663 | 0.587 | 0.771 | 0.505 | 0.993 | 1.05 | 1.05 | 1.03 | 0.65 | 1.07 | 0.643 | 0.903 | 0.758 | 0.931
6 | CAL-12T | 0.726 | 0.843 | 0.502 | 0.548 | – | 0.461 | 1.03 | 1.02 | 1.03 | 1.12 | 0.85 | 1 | 0.974 | 0.937 | 1.01 | 1.01
7 | COR-L23 | 0.677 | 0.629 | 0.484 | 0.379 | 0.441 | 0.308 | 1.14 | 1.02 | 0.982 | 0.931 | 0.268 | 1.06 | 0.957 | 0.914 | 1 | 1.27
8 | COR-L 105 | 0.666 | 0.798 | 0.711 | 0.648 | 0.696 | 0.577 | 1.07 | 0.955 | 0.874 | 0.824 | 0.711 | 0.862 | 0.911 | 0.944 | 0.889 | 0.923
9 | Calu-6 | 0.785 | 0.644 | 0.383 | 0.301 | – | 0.272 | 1.08 | 1.04 | 1 | 0.633 | 0.279 | 0.982 | 1.03 | 0.977 | 1.04 | 1.03
10 | ChaGo-K-1 | 0.933 | 0.816 | 0.537 | 0.482 | 0.537 | 0.477 | 0.995 | 0.968 | 0.916 | 0.967 | 1.03 | 0.965 | 0.733 | 0.952 | 1.1 | 0.997
11 | EBC-1 | 0.626 | 0.456 | 0.313 | 0.272 | – | 0.246 | 1.06 | 0.946 | 0.829 | 0.496 | 0.231 | 0.999 | 0.946 | 0.971 | 1.01 | 1.19
12 | EKVX | 0.71 | 0.809 | 0.647 | 0.418 | 0.358 | 0.375 | 1.06 | 0.928 | 0.989 | 1 | 0.858 | 1.05 | 0.929 | 0.888 | 0.844 | 1.03
13 | EMC-BAC-2 | – | 1.04 | 0.817 | 0.726 | 0.976 | 0.685 | 1.07 | 0.977 | 1.13 | 0.926 | 0.595 | 0.957 | 0.753 | 0.913 | 0.933 | 1.09
14 | EPLC-272H | 0.6 | 0.749 | – | 0.46 | 0.386 | 0.407 | 1.07 | 1.02 | 0.921 | 1.01 | 0.889 | 0.77 | – | 0.915 | 0.792 | 0.975
15 | H3255 | 0.636 | 0.857 | 0.702 | 0.668 | 0.657 | 0.666 | 1.07 | 0.99 | 0.88 | 0.95 | 0.992 | 1.1 | 0.859 | 0.964 | 0.938 | 0.986
16 | HARA | 0.79 | 0.818 | 0.482 | 0.381 | 0.519 | 0.374 | 0.963 | 0.927 | 0.915 | 1.12 | 0.827 | 0.908 | 1.01 | 0.878 | 1.05 | 1.01
17 | HCC-15 | 0.915 | 0.917 | 0.419 | 0.483 | 0.661 | 0.508 | 0.991 | 1.14 | 0.981 | 0.979 | 0.842 | 1.03 | – | 0.948 | 1.08 | 1
18 | HCC-44 | 0.924 | 0.985 | 0.348 | 0.545 | 0.938 | 0.639 | 0.988 | 0.98 | 0.972 | 0.953 | 0.8 | 0.996 | – | 0.945 | 0.959 | 0.983
19 | HCC-78 | 0.877 | 0.816 | 0.673 | 0.541 | 0.706 | 0.47 | 1.07 | 0.961 | 0.958 | 1.06 | 0.879 | 0.963 | 1.05 | 0.965 | 1.03 | 1
20 | HCC-366 | 1.03 | 0.977 | 0.546 | 0.241 | 0.344 | 0.155 | 1.02 | 1.05 | 1 | 0.963 | 1.01 | 1.1 | 1.02 | 0.993 | 1.02 | 1
21 | HCC-827 | 0.306 | 0.483 | 0.398 | 0.288 | 0.325 | 0.377 | 1.07 | 1.04 | 0.976 | 1.03 | 0.939 | 1.19 | – | 1.02 | 1.04 | 1.03
22 | HOP-62 | 0.631 | 0.472 | 0.253 | 0.165 | 0.212 | 0.199 | 0.964 | 1.11 | 1.01 | 0.863 | 0.69 | 1.07 | 0.695 | 0.892 | 0.983 | 1.08
